ChEMBL document CHEMBL2396652 (Bioorg Med Chem Lett, 2013)
Active and inactive are the calls of the source. The rule behind the calls is not given here.

What was measured:
Mu-type opioid receptor [1] = biological target: T1, Mu-type opioid receptor (Homo sapiens, UniProt P35372); experiment: Agonist activity at mu opioid receptor (unknown origin) expressed CHO cells assessed as stimulation of [35S]-GTP[gammaS] binding; format: cell-based
Homo sapiens [2] = species on record: Homo sapiens; experiment: Selectivity ratio of Ki for kappa opioid receptor (unknown origin) to Ki for mu opioid receptor (unknown origin)
Homo sapiens [3] = species on record: Homo sapiens; experiment: Selectivity ratio of Ki for delta opioid receptor (unknown origin) to Ki for mu opioid receptor (unknown origin)
Mu-type opioid receptor [4] = biological target: T1, Mu-type opioid receptor; experiment: Agonist activity at mu opioid receptor (unknown origin) expressed CHO cells assessed as stimulation of [35S]-GTP[gammaS] binding relative to DAMGO; format: cell-based
Mu-type opioid receptor [5] = biological target: T1, Mu-type opioid receptor; experiment: Antagonist activity at mu opioid receptor (unknown origin) expressed CHO cells assessed as inhibition of [35S]-GTP[gammaS] binding; format: cell-based
Mu-type opioid receptor [6] = biological target: T1, Mu-type opioid receptor; experiment: Agonist activity at mu opioid receptor (unknown origin) expressed CHO cells assessed as stimulation of [35S]-GTP[gammaS] binding at 10 uM relative to DAMGO; format: cell-based

T1 sequence (P35372 whole entry): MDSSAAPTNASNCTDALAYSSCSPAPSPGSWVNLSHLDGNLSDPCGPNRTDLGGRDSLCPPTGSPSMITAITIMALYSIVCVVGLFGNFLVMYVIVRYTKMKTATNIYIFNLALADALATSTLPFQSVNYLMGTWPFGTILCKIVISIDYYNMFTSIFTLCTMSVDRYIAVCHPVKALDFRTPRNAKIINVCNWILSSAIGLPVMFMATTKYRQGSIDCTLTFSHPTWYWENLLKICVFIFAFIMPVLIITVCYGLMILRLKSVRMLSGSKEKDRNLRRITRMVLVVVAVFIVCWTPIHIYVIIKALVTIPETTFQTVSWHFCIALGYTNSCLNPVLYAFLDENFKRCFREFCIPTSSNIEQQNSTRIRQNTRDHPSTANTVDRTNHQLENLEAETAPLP

Compound | EC50 (Mu-type opioid receptor [1]) [nM] | Ratio Ki (Homo sapiens [2]) | Ratio Ki (Homo sapiens [3]) | Emax (Mu-type opioid receptor [4]) [%] | inhibition (Mu-type opioid receptor [5]) | Emax (Mu-type opioid receptor [6]) [%]
O=C(N[C@@]12CCC(=O)[C@@H]3Oc4c(O)ccc5c4[C@@]31CCN(CC1CC1)[C@@H]2C5)c1cnc2ccccc2c1 | 2.81 | 0.12 | 1.3 | 15.8 | – | –
COc1cccc2c1[C@]13CCN(CC4CC4)[C@H](C2)[C@]1(OC)CCC(=O)C3 | – | 45 | 40 | – | – | –
O=C(N[C@@]12CCC(=O)[C@@H]3Oc4c(O)ccc5c4[C@@]31CCN(CC1CC1)[C@@H]2C5)c1cccnc1 | – | 0.21 | 53 | – | Active | 5.09
O=C(N[C@@]12CCC(=O)[C@@H]3Oc4c(O)ccc5c4[C@@]31CCN(CC1CC1)[C@@H]2C5)c1cc2ccccc2cn1 | – | 0.07 | 7.2 | – | Active | 2.84
O=C(N[C@@]12CCC(=O)[C@@H]3Oc4c(O)ccc5c4[C@@]31CCN(CC1CC1)[C@@H]2C5)c1ccc2ccccc2c1 | 11.1 | 0.05 | 1.7 | 16.5 | – | –
O=C(N[C@@]12CCC(=O)[C@@H]3Oc4c(O)ccc5c4[C@@]31CCN(CC1CC1)[C@@H]2C5)c1ccccn1 | – | 0.24 | 63 | – | Active | 0.9
O=C(N[C@@]12CCC(=O)[C@@H]3Oc4c(O)ccc5c4[C@@]31CCN(CC1CC1)[C@@H]2C5)c1ccncc1 | 1.67 | 0.4 | 13 | 7.74 | – | –
O=C(N[C@@]12CCC(=O)[C@@H]3Oc4c(O)ccc5c4[C@@]31CCN(CC1CC1)[C@@H]2C5)c1ccccc1 | 7.2 | 0.03 | 13 | 5.79 | – | –
O=C(N[C@@]12CCC(=O)[C@@H]3Oc4c(O)ccc5c4[C@@]31CCN(CC1CC1)[C@@H]2C5)c1ccc2ccccc2n1 | 38.8 | 0.03 | 1.7 | 34.4 | – | –
